# Data from patent US10098906B2, “Modulation of the physical interaction between platelets and the cell surface effecting cell proliferation” (Cell Receptor GmbH, priority 2013, dated 2018).
# Values joined by “and” are separate entries in the source; they are usually repeats but may differ in a detail not shown here. Equal values may be shown once.
# Assays:
# platelets = experiment: In vitro platelet aggregation compared with UFH; format: cell-based; details: in vitro studies
# [1] = Anticoagulant activity compared with heparin; details: in vitro studies
# [2] = fraction of heparin activity; cited from earlier work
# HeLa cells, clone S3 = experiment: Adhesion experiment (platelet binding to cell surface), microscopic quantification; format: cell-based, human; details: for Inhibition of platelet binding to growing cells: 0.1 ppm, FIG. 11, triplicate; for Inhibition of platelet binding to growing cells (in words): concentration not stated; for Reduction of platelet binding to the cells: 0.01 U/mL; for Inhibition of the binding of platelets to the HeLa cells: 0.1 U/mL, FIGS. 5 to 9
# Description: The process for evaluating the platelet binding of growing cells involves the isolation of platelets from peripheral blood with two subsequent washes and cell sedimentation. These washes include a partial activation of the platelets, which is relevant for their interaction with Heparin. The incubation with the cells under investigation takes place under conditions in which full activation of platelets is approached, which would lead to lumps forming in the platelets. This would hinder analysis. Therefore, a low concentration of EDTA is added to the assay. The quantification of platelets and the calculation of the surface portions of cells and background is carried out using appropriate software, namely by macros in the open source program ImageJ.
# Virus and mycoplasma free HeLa cells, clone S3, and human skin fibroblasts (NHDF) were purchased from Promo Cell, Heidelberg. Their human origin was confirmed by STR-Analysis. HeLa cells were maintained in Eagles MEM with 10% fetal calf serum. The NHDF were also maintained with 10% fetal calf serum in RPMI 1640. The passaging was performed by trypsin-EDTA treatment. The cell lines were maintained in either 25 ml bottles or in 3 cm plates.
# The cells used for the experiment are cultured for 2 or 3 days in standard plates. At the start of the experiment about ⅓ of the plate surface should be covered with cells. The culture plates are subsequently washed with the buffer mixture described above and filled with further buffer mixture. For example, 30 mm culture dishes are filled with 2 ml 37° C. pre-warmed buffer mixture and 3×10^7 platelets obtained from the above-mentioned suspension.
# The platelet-treated plates are incubated at 37° C. for 60 minutes. In this incubation, the pretreated platelets adhere to proliferating cells. However, cells of G0-phase bind little or none of the pre-treated platelets. This stage of incubation is when the substance to be tested is added to the cell culture buffer, in order to detect whether an effect on platelet binding is observed.
# After the one hour incubation, the plates are washed at room temperature with the above mentioned buffer mixture until no free water floating platelets (generally 2 to 4 washes) are present and immediately fixed with glutaraldehyde (1% v/v in H2O).
# The evaluation is carried out photographically. For this purpose, the image analysis program ImageJ is applied. The number of cell-bound platelets in relation to the recorded cell number of cells is determined. Additionally, the number of cell-bound platelets in relation to the cell-covered area may be determined.
# Images are produced after the fixation in triplicate per plate. Phase contrast or brightfield 25×, 16× or 10× objectives are used. Image analysis is carried out according to SOP IJ. The open source program ImageJ may be used to for differential image subtraction and mask optimization. Subsequently, platelet number, cell number and proportional cell surface are determined by other IJ components.
# HeLa cells = experiment: Cell culture experiment for testing inhibition of cell proliferation (daily co-incubation with platelets, serum-free); format: cell-based, human; details: inhibitor 1.0 or 0.1 μg/mL co-incubated with platelets 30 minutes daily, serum-free Eagle's MEM
# Description: In order to interrogate the effectiveness of PPS and DXS with respect to the inhibition of cell growth, the following experiment may be carried out.
# Experiment duration: 5 days; Culture medium: Eagle's MEM without serum addition.
# Test approach: PPS or DXS in 1.0, 0.1 μg/mL, and control (0 μg/mL final concentration).
# HeLa cells are cultured from stocks: 10^4 cells/25 cm^2 flask, cell numbers are counted in a Fuchs-Rosenthal chamber. Platelets are prepared as described above.
# Platelets and HeLa cells, or other tumor cell lines, either with or without inhibitor, are co-incubated for 30 minutes once every day, for 1 to 4 days. After co-incubation the cells are washed as described above and then allowed to rest under standard culture conditions. Typically 90×10^6 platelets are incubated per well per day.
# On day 5, cells are washed with HBSS, photographed, trypsinized and the cell number counted as described above.
substance,measurement,setting,value
Dextran sulfate sodium salt from Leuconostoc spec [DXS],Platelet aggregation in comparison to UFH,platelets,reduced platelet aggregation
same,Anticoagulation in comparison to UFH,[1],reduced anticoagulation
same,Anticoagulant activity relative to heparin,[2],much weaker
same,Inhibition of platelet binding to growing cells,"HeLa cells, clone S3",roughly 75%
same,Inhibition of platelet binding to growing cells (in words),"HeLa cells, clone S3",reproducible inhibition
same,Increase of cell number (proliferation) on day 5,HeLa cells,increases to a reduced extent
dalteparin,Reduction of platelet binding to the cells,"HeLa cells, clone S3",significant reduction
same,Inhibition of the binding of platelets to the HeLa cells,"HeLa cells, clone S3",almost completely inhibited
danaparoid,Difference in platelet binding between control and treatment,"HeLa cells, clone S3; 1.25 U/mL, about 5 times the upper limit of the therapeutic range",no significant difference
same,Cell-bound platelets per cell,"HeLa cells, clone S3; 1.25 U/mL, control 15.9+/-7.7 platelets/cell",13.2 platelets/cell
same,Inhibition of platelet binding to growing cells (in words),"HeLa cells, clone S3",significantly lower effect
same,Inhibition of platelet binding to growing cells (in words),"HeLa cells, clone S3; listed as Danaparoid",to a lower extent
dermatan sulfate,Inhibition of platelet binding to growing cells (in words),"HeLa cells, clone S3",significantly less effective
enoxaparin,Reduction of platelet binding to the cells,"HeLa cells, clone S3",significant reduction
same,Inhibition of the binding of platelets to the HeLa cells,"HeLa cells, clone S3",almost completely inhibited
heparan sulfate,Inhibition of platelet binding to growing cells (in words),"HeLa cells, clone S3",significantly less effective
pentosan polysulfate [PPS],Platelet aggregation in comparison to UFH,platelets,reduced platelet aggregation
same,Anticoagulation in comparison to UFH,[1],reduced anticoagulation
same,Anticoagulant activity relative to heparin,[2],less than 1/10 and much weaker and 1/15
same,Inhibition of platelet binding to growing cells,"HeLa cells, clone S3",roughly 75%
same,Inhibition of platelet binding to growing cells (in words),"HeLa cells, clone S3",reproducible inhibition
same,Increase of cell number (proliferation) on day 5,HeLa cells,increases to a reduced extent
tinzaparin,Reduction of platelet binding to the cells,"HeLa cells, clone S3",significant reduction
same,Inhibition of the binding of platelets to the HeLa cells,"HeLa cells, clone S3",almost completely inhibited
